Data from US20240325394A1, “SALT AND CRYSTAL FORM OF NITROGEN-CONTAINING HETEROCYCLIC DERIVATIVE, PREPARATION METHOD THEREFOR AND APPLICATION THEREOF” (SHANGHAI HANSOH BIOMEDICAL CO., LTD., priority 2020, published 2024).
Like-named read-outs stand apart in the source and are kept apart here.

Tests used:
[1] = Pharmacokinetics in mice (plasma) after oral administration; assay type: in vivo, Balb/c mice
Protocol: 5 g of Hydroxyethyl cellulose (HEC, CMC-Na, viscosity: 800-1200 Cps) was weighed, dissolved in 1000 mL of purified water, and 10 g of Tween 80 was added. The mixture was mixed well to form a clear solution.
The compounds of the embodiments were weighed and added into 4-mL glass bottles, respectively, 2.4 mL of the solution was added, and ultrasound was performed for 10 minutes to obtain a colorless clear solution with a concentration of 1 mg/mL.
Balb/C mice, males; PO, after overnight fasting, respectively, at a dose of 10 mg/kg, administered in a volume of 10 mL/kg.
Blood samples were collected before administration and 0.083 h, 0.25 h, 0.5 h, 1 h, 2 h, 4 h, 6 h and 8 h after administration, the blood was placed in EDTA-2K tube, centrifuged at 4° C. 6000 rpm for 6 min to separate plasma, and stored at −80° C.; food was consumed 4 hours after drug administration.

[2] = Plasma stability, human plasma; assay type: in vitro ADME
Method in brief: (§1)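 Compound from a 10 μM working solution in 100 mM phosphate buffer was incubated at 37°C in anticoagulated plasma from each species, with propantheline as positive control. Aliquots taken at 0, 15, 30, 60, 90 and 120 min were quenched in acetonitrile with internal standard. Remaining compound was quantified by LC-MS/MS (positive ESI, MRM).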

[3] = Plasma stability, rat plasma; assay type: in vitro ADME; conditions: rat plasma, 37° C.
Method in brief: as §1

[4] = Plasma stability, dog plasma; assay type: in vitro ADME; conditions: dog plasma, 37° C.
Method in brief: as §1

[5] = molecular target: T1, CYP450 2C19 (Homo sapiens, UniProt P33261); experiment: CYP enzyme single point inhibition test, human liver microsomes, 2C19; assay type: in vitro ADME; conditions: single point method
T1 construct: from tissue; host or cells: human liver microsomes
T1 sequence (P33261 whole entry): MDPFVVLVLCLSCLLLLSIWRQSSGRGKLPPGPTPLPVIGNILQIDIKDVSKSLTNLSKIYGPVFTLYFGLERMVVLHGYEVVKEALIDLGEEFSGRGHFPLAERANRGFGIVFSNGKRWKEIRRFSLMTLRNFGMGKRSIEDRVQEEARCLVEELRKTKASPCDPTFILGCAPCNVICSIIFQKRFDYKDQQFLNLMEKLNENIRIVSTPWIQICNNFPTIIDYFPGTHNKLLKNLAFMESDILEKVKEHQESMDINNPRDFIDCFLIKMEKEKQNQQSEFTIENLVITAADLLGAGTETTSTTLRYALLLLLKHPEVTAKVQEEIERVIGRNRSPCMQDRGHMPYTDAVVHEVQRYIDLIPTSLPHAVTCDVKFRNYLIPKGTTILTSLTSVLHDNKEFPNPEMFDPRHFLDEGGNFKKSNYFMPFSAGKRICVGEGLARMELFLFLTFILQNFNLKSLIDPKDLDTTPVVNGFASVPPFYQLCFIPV
Protocol: (§2) Using human liver microsomal incubation system, the inhibition of CYP450 enzyme subtypes by compounds was rapidly predicted by single point method.
(§3) 2.5 mM NADPH: 100 mM phosphate buffer was added to 4.165 mg of NADPH (reduced nicotinamide adenine dinucleotide phosphate) to 2 mL. 0.25 mg/mL microsome: 4 mL of 100 mM phosphate buffer was added to 50 μL of 20 mg/mL microsome and mixed well.
(§4) The embodiment compound to be tested was weighed and diluted to 10 mM with DMSO and then diluted to 100 µM with 100 mM phosphate buffer.
(§5) • 1. In a 96-well plate, 40 μL of liver microsomes, 10 μL of substrate, 10 μL of compound to be tested were pre-incubated for 3 min. • 2. 40 μL of NADPH was added. • 3. 300 μL of acetonitrile termination solution containing internal standard was added at 20 min. • 4. Centrifugal injection.

[6] = molecular target: T2, CYP450 3A4 (Homo sapiens, UniProt P08684); experiment: CYP enzyme single point inhibition test, human liver microsomes, 3A4 (3A4-M, 3A4-T); assay type: in vitro ADME; conditions: single point method
T2 construct: from tissue; host or cells: human liver microsomes
T2 sequence (P08684 whole entry): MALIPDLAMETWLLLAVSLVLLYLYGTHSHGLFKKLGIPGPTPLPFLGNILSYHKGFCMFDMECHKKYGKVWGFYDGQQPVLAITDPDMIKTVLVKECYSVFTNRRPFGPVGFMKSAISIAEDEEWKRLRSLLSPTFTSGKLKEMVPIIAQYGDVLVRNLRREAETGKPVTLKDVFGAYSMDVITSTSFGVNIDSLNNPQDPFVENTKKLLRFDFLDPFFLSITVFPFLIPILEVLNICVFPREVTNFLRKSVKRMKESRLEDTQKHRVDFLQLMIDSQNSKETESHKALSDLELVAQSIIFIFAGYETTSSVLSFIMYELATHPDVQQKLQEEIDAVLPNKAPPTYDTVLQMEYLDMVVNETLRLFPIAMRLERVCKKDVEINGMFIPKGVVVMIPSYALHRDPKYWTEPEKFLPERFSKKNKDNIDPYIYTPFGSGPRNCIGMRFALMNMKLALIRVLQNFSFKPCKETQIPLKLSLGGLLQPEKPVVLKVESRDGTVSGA
Protocol: as §2, §3, §4, §5

[7] = Pharmacokinetics in MiaPaca 2 tumor-bearing mice (plasma, tumor tissue); assay type: in vivo; conditions: female, mouse, po; Plasma, p.o. 6 mg/kg
Protocol: The pharmacokinetic behavior of the compound of the embodiment 13-1 and AMG-510 compound, administered orally at a dose of 6 mg/kg, in mice (plasma, tumor tissue and intestine) was studied using MiaPaca 2 tumor-bearing mice as test animals.
24 MiaPaca 2 tumor-bearing mice, females. 3 for each time point (0 h, 1 h, 2 h, 4 h, 6 h, 8 h, 16 h, 24 h). Shanghai xipuer-bikai Laboratory Animal Co., Ltd, Animal Production License No. (SCXK (Shanghai) 2018-0006.
Embodiment compound 13-1 and compound AMG-510 were weighed and dissolved in the solution, the mixture was shaken well, and ultrasound was performed for 15 minutes to obtain a uniform suspension with a concentration of 0.6 mg/mL.
MiaPaca 2 tumor-bearing mice were administered at a dose of 6 mg/kg in a volume of 10 mL/kg, respectively, based on body weight p.o. after fasting (animals were not administered at point 0 h).
Before and after administration, mice were sacrificed with CO2, 0.5 mL blood was collected from the heart and placed in EDTA-2K tube, centrifuged at 4° C. […] The duodenum, ileum and colon tissues were cut with scissors, the contents were removed and cleaned twice with PBS, after absorbing water with absorbent paper, they were weighed, placed in a 2 mL centrifuge tube and stored at −80° C.

[8] = system: plasma protein; experiment: Plasma protein binding rate test, dog plasma; assay type: in vitro ADME; conditions: 5 μM, 37° C., 6 hours
Protocol: The embodiment compound was prepared into a 1 mM solution A with DMSO.
Solution A was added to the plasma solution and prepared into a 5 μM solution B.
• 1) 200 μL of solution B was added into the membrane. • 2) 350 μL of PBS was added to the outside of the membrane. • 3) Incubating in a 37° C. water bath for 6 hours. • 4) The samples were processed for dilution and detected by mass spectrometry.
• instrument: Shimadzu LC-20 AD; • chromatographic column: phenomenex Gemiu® C18 (50*4.6 mm, 5 UM particle size); • mobile phase: A: Acetonitrile, B: 0.1% formic acid solution 0-0.5 min: 5% A→90% A, 2.0-2.1 min: 90% A→5% A; flow rate: 0.8 mL/min; running time: 5.0 min; injection volume: 5 μL.
• instrument: API4000 Liquid Chromatography-Mass Spectrometry, AB, USA; • the ion source was electrospray ionization source (ESI); • the temperature of dry gas (N2) was 500° C.; • electrospray voltage was 5500V; • the detection method was positive ion detection; • the scanning mode was selective response monitoring (MRM); the scanning time was 0.1 s.

[9] = 3A4-M, read-out: IC50 (μM) 3A4-M
[10] = 3A4-T, read-out: IC50 (μM) 3A4-T
[11] = Balb/c mice, PO 10 mg/kg, plasma

Row | Compound | Residual rate (%) 0 min [3] [%] | Residual rate (%) 15 min [3] [%] | Residual rate (%) 30 min [3] [%] | Residual rate (%) 60 min [3] [%] | Residual rate (%) 120 min [3] [%] | Residual rate (%) 0 min [4] [%] | Residual rate (%) 15 min [4] [%] | Residual rate (%) 30 min [4] [%] | Residual rate (%) 60 min [4] [%] | Residual rate (%) 120 min [4] [%] | IC50 [5] [µM] | IC50 [6, 9] [µM] | IC50 [6, 10] [µM] | other results
1 | C=CC(=O)N1C[C@H](C)N(c2nc(=O)n(-c3c(SC)ccnc3C(C)C)c3nc(-c4c(N)ccc(Cl)c4F)c(Cl)cc23)C[C@H]1C (atropisomer, axis not shown) [Embodiment 13-1, P-4-((2S,5R)-4-Acryloyl-2,5-dimethylpiperazin-1-yl)-7-(6-amino-3-chloro-2-fluorophenyl)-6-chloro-1-(2-isopropyl-4-(methylthio)pyridin-3-yl)pyrido[2,3-d]pyrimidin-2(1H)-one] | 100.00 | 95.57 | 96.73 | 93.97 | 91.93 | 100.00 | 97.71 | 96.32 | 94.86 | 92.49 | 28.8 | 4.7 | 9.1 | half-life ([1]; male, Balb/c, mouse, in vivo, po, 10 mg/kg): 60 min; Residual rate (%) 0 min ([2]; human, 0.5 μM): 100.00%; Residual rate (%) 15 min ([2]; human, 0.5 μM): 102.34%; Residual rate (%) 30 min ([2]; human, 0.5 μM): 100.28%; Residual rate (%) 60 min ([2]; human, 0.5 μM): 90.27%; Residual rate (%) 120 min ([2]; human, 0.5 μM): 87.22%; MRT [7]: 54 min; half-life [7]: 30 min
2 | P-4-((2S,5R)-4-acryloyl-2,5-dimethylpiperazin-1-yl)-6-fluoro-7-(2-fluoro-6-hydroxyphenyl)-1-(2-isopropyl-4-(methylthio)pyridin-3-yl)pyrido[2,3-d]pyrimidin-2(1H)-one [Embodiment 2-1] | 100.00 | 99.04 | 101.03 | 97.16 | 84.63 | 100.00 | 97.87 | 96.23 | 92.42 | 85.48 | > 100 | 19 | > 100 | AUC0-∞ [1, 11]: 1373 ng·h/mL; Cmax [1, 11]: 1823 ng/mL; MRT [1, 11]: 42 min; T1/2 [1, 11]: 36 min; Tmax [1, 11]: 15 min; Residual rate (%) 0 min ([2]; human plasma, 37° C.): 100.00%; Residual rate (%) 15 min ([2]; human plasma, 37° C.): 97.39%; Residual rate (%) 30 min ([2]; human plasma, 37° C.): 98.79%; Residual rate (%) 60 min ([2]; human plasma, 37° C.): 94.50%; Residual rate (%) 120 min ([2]; human plasma, 37° C.): 87.91%; Plasma protein binding rate, Dog [8]: 82.6
